The results in this text go back to US8703815B2, “Small molecules that covalently modify transthyretin” (The Scripps Research Institute, priority 2009, dated 2014).

In one data set the test system is IMR-32 cells. Nature of the data set: Compound cytotoxicity to IMR-32 cells in the absence of WT-TTR. In kind it is cell-based, human. As for the experimental part:
Metabolically active cells reduce the resazurin redox dye to resorufin, a soluble fluorescent compound. [O'Brien et al., Eur. J. Biochem. 267:5421-5426 (2002)] The percentage of viable cells was calculated relative to cells treated with vehicle only (cell culture media and DMSO=100% viable).
The human neuroblastoma IMR-32 cell line (CCL-127 ATCC) was maintained in Opti-MEM® medium (Invitrogen), supplemented with 5% FBS, 1 mM Hepes buffer, 2 mM L-glutamine, 100 units/mL penicillin, 100 μg/mL streptomycin and 0.05 mg/mL CaCl2 (complete cell medium). Cells were seeded in black wall, clear bottom, tissue culture treated 96-well plates (Costar) at a density of 6,000 cells/well in complete cell medium and incubated overnight (about 18 hours) at 37° C.
Recombinant WT-TTR purified in the cold was used as the cytotoxic insult. The protein was buffer-exchanged in Hanks' Balanced Salt Solution (HBSS, Mediatech, Manassas, Va.) at 10° C. using a Centriprep® filter device (10 kDa MWCO, Millipore). Compounds (16 mM in DMSO) were diluted 1:1000 with WT-TTR (16 μM in HBSS, filter sterilized) or with HBSS only, vortexed and incubated for 18 hours at 37° C. WT-TTR (16 μM in HBSS) containing the same amount of DMSO was prepared in parallel and incubated under the same conditions.
The medium was removed from the cells and replaced immediately by the TTR/compound mixtures or HBSS previously diluted 1:1 in Opti-MEM® supplemented with 0.8 mg/mL BSA, 2 mM Hepes buffer, 4 mM L-glutamine, 200 units/mL penicillin, 200 μg/mL streptomycin and 0.1 mg/mL CaCl2. The cells were incubated 24 hours at 37° C. Cell viability was evaluated by a resazurin reduction assay.
Briefly, 10 μL of resazurin (500 μM, PBS) was added to each well and fluorescence quantified in a plate reader (Ex/Em 530/590 nm, Tecan Safire 2, Austria) after 1 hour of incubation at 37° C. Cell viability was calculated as percentage of fluorescence relative to cells treated only with vehicle (100% viability) after subtraction of blank fluorescence (wells without cells). Averages and standard errors from 2 independently performed studies, each performed at least in triplicate, were calculated using GraphPrism (San Diego, Calif., US).

In a further data set the target is T1, WT-TTR (Homo sapiens, UniProt P02766).
T1 construct: composed of 127-residue β-sheet-rich subunits; made in house; host or cells: E. coli
Nature of the data set: Quantum yield measurement with WT-TTR. In kind it is physicochemical. Conditions: compound 7.2 μM. On the procedure:
The covalent TTR modifier A1 or A2 or the non-covalent TTR ligand B2 (15 μL of a 1.44 mM solution in DMSO, final concentration: 7.2 μM) was added to 3 mL of a solution of WT-TTR homotetramer (0.2 mg/mL, 3.6 μM) in 10 mM phosphate, 100 mM KCl and 1 mM EDTA (pH 7.0 phosphate buffer). The samples were vortexed, and incubated for 18 hours at 25° C. Quantum yields were measured by following the instructions at the web site: jobinyvon.com/usadivisions/Fluorescence/applications/quantumyieldstrad.pdf. Quinine bisulfate in 0.5 M H2SO4 was used as a reference for comparison (Φf=0.546). [Crosby et al., J. Phys. Chem. 1971, 75, 991-1024.]

Data set [1] has as its system WT-TTR in transfected HeLa cells. In words: Confocal fluorescence imaging of WT-TTR in transfected HeLa cells. It is filed as cell-based, human. Conditions: A2 10 μM, 1 hour. On the procedure: Secreted WT-TTR was produced in HeLa cells by transient transfection and the cells were treated with A2 for 1 hour prior to imaging using confocal fluorescence microscopy. The expression of WT-TTR in the HeLa cells after transient transfection was confirmed using western blot analysis, as was the absence of TTR in the empty vector control. […] TTR conjugate fluorescence co-localized with calnexin indirect immunofluorescence, a marker for the endoplasmic reticulum (ER), confirming that WT-TTR within the secretory pathway is being observed. TTR conjugate fluorescence is also expected in the Golgi and in secretory vesicles, explaining why TTR conjugate fluorescence is observed in organelles in addition to the ER.
HeLa cells were plated on cover slips in DMEM containing 10% FBS at 37° C. under 5% CO2 the day before they were transfected with pcDNA3.1(+)-empty vector or pcDNA3.1(+)-WT-TTR using […] (Roche) according to the manufacturer's instructions. After 48 hours, the cells were washed with PBS twice before adding fresh DMEM (without FBS) with A2 (final concentration: 10 μM), and the cells were incubated at 37° C. for 1 hour. After two washes with PBS, the cells were fixed at 25° C. for 15 minutes with 3.7% (w/v) paraformaldehyde in PBS. […]

The test system of data set [2] is Huh-7 human liver (hepatoma) cells. In words: Labeling of endogenous TTR in Huh-7 cells. In kind it is cell-based. Conditions: A2 10 μM, 30 minutes. The text has this: The confocal fluorescence observations are consistent with substantial evidence that the liver secretes the vast majority, if not all, of the TTR into the human bloodstream [Felding et al., Biochimica et Biophysica Acta 1982, 716, 446-9]. That TTR could be visualized in the secretory pathway addresses the sensitivity of A2-derived TTR fluorescent conjugate-based detection [Sekijima et al., Cell 2005, 121, 73-85].
Huh-7 cells or Gaucher's patient-derived fibroblasts (Coriell Cell Repositories, GM08760) were maintained in DMEM containing 10% FBS at 37° C. under 5% CO2. The cells were plated the day before compound treatment and imaging. Cells were washed twice with PBS and then treated with A2 (final concentration: 10 μM) for 30 minutes at 37° C. in a CO2 incubator. After two washes, cells were fixed at 25° C. for 15 minutes with 3.7% paraformaldehyde (w/v) in PBS and microscopic images were acquired as described above.

Read-outs that look alike come from different tables or passages of the source.

On to `Cc1cc(/C=C/c2cccc(C(=O)Sc3ccccc3)c2)cc(C)c1O` [Compound 2, (E)-S-phenyl 3-(4-hydroxy-3,5-dimethylstyryl)benzothioate], for which, in the data set on IMR-32 cells, the “cytotoxicity to IMR-32 cells in the absence of WT-TTR” value was “None of these compounds were cytotoxic to IMR-32 cells”.

In the case of `Cc1cc(/C=C/c2cccc(C(=O)Oc3ccc(F)cc3)c2)cc(C)c1O` [Compound 4, (E)-4-fluorophenyl 3-(4-hydroxy-3,5-dimethylstyryl)benzoate], the “cytotoxicity to IMR-32 cells in the absence of WT-TTR” value with IMR-32 cells (human, IMR-32 neuroblastoma cells, 24 h, 8 µM) is recorded as “None of these compounds were cytotoxic to IMR-32 cells”.

With `Cc1cc(/C=C/c2cc(C(=O)Sc3ccc(F)cc3)cc(N(C)C)c2)cc(C)c1O` [Compound A2, (E)-S-4-fluorophenyl 3-(dimethylamino)-5-(4-hydroxy-3,5-dimethylstyryl)-benzothioate], the “fluorescence quantum yield in complex or conjugate with TTR” value on WT-TTR came to 0.27. Further, the “conjugate fluorescence in HeLa cells expressing WT-TTR” value in data set [1] was “strong conjugate fluorescence”. Besides, the “fluorescence in Huh-7 cells” value in data set [2] was “strong fluorescence”.
